Measured values published in US20230151003A1, “COMPOUNDS AND METHODS OF USE” (Exelixis, Inc., priority 2020, published 2023).

Legend:
Type in all cases: cell-based
Mer = biological target: T1, Mer (Homo sapiens, UniProt Q12866); assay: Mer autophosphorylation ELISA in transient transfected 293A cells; conditions: Table 3 Cellular Activities; MERTK-transfected 293A cells, phospho-Mer ELISA
T1 construct: host or cells: 293A cells (Thermo Fisher #R70507)
T1 sequence (Q12866 21-999): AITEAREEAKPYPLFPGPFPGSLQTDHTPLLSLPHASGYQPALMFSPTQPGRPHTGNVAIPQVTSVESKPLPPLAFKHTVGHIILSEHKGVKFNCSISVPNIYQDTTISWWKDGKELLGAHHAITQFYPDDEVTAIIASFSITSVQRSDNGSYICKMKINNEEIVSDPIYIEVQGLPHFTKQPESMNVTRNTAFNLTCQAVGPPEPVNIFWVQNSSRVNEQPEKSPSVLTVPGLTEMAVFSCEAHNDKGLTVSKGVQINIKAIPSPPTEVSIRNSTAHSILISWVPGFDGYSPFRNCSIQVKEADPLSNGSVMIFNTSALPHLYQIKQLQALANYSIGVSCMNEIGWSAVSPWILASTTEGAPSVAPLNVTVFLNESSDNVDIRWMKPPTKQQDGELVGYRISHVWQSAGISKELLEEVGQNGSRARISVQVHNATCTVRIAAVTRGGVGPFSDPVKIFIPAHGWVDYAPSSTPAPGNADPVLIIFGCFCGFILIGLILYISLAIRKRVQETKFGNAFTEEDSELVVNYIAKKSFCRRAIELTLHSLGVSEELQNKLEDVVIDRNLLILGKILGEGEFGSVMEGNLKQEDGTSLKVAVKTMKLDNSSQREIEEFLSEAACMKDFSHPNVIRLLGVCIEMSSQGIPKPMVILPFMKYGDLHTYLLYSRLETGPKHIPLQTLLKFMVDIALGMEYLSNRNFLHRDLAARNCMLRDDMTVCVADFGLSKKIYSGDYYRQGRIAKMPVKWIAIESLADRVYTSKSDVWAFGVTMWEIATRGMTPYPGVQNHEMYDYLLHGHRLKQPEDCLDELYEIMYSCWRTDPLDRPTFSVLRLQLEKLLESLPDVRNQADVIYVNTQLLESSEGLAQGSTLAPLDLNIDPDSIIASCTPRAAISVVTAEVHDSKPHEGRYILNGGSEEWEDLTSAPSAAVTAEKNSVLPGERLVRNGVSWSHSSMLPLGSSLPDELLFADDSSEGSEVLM
Procedure: 293A cells (Thermo Fisher #R70507) were seeded at 1.5×10^6 cells/well onto 100 mm dish (Greiner #664169), in DMEM (Thermo Fisher #11995-040) containing 10% FBS (Thermo Fisher #26140-079), 1% MEM NEAA (Thermo Fisher #11140-050), 1% GlutaMax (Thermo Fisher #35050-061), and 1% Penicillin Streptomycin (Thermo Fisher #15140-122). 293A cells were incubated at 37° C., 5% CO2 for 24 h and then transfected with 6μg MERTK DNA (Genecopoeia #EX-Z8208-M02) using TransIT LT1 transfection reagent (Mirus-Bio #MIR2305). After 24 h incubation, the transfected 293A cells were seeded at 1×10^5 cells/well onto 96-well plates (Corning #3904) in DMEM growth medium overnight. Test compounds were serially diluted to produce an 8-point dose curve in fresh serum-free medium to a final concentration of 0.3% DMSO (vehicle) and added to the cells and incubated for 1 h. Cells were then immediately lysed with 150 μL of cold 1× lysis buffer […], 137 mM sodium chloride, 2 mM EDTA, 10% glycerol, 1% NP-40 alternative, 1 mM activated sodium orthovanadate, 1 mM PefaBloc SC (Sigma-Aldrich #11429868001), protease/phosphatase inhibitor tablet (Thermo Fisher #A32959)]. Lysates were clarified by centrifugation and 50 μL/well added into the human phospho-Mer DuoSet IC ELISA (R&D Systems #DYC2579-2). Assay was performed according to manufacturer's instructions and sample phospho-Mer concentrations were extrapolated using human phospho-Mer control (R&D Systems #841793) as a standard. Positive control wells (100% activity) contained DMSO-treated cell lysates. Negative control wells (0% activity) contained reference inhibitor-treated cell lysates. IC50 values were calculated by nonlinear regression analysis using a 4-parameter logistic curve fit in ActivityBase XE (IDBS).

KDR = KDR (Homo sapiens, UniProt P35968); assay: KDR autophosphorylation ELISA in HUVEC cells; set-up: endogenous in cells; host or cells: HUVEC (Lonza #C2519A); conditions: Table 3 Cellular Activities, VEGF165-stimulated, phospho-KDR ELISA
Procedure: Human umbilical vein endothelial cells or HUVEC (Lonza #C2519A) were seeded at 2×10^4 cells/well onto 96-well plates (Corning #3904), in EGM-2 growth medium (Lonza #CC-3162) containing 1% Penicillin Streptomycin (Thermo Fisher #15140-122). HUVEC cells were incubated at 37° C., 5% CO2 for 24 h and then starved for 24 h in serum-free EBM-2 basal medium (Lonza #CC-3156) containing 1% Penicillin Streptomycin. Test compounds were serially diluted to produce an 8-point dose curve in fresh serum-free medium to a final concentration of 0.3% DMSO (vehicle) and added to the cells and incubated for 1 h. Cells were then stimulated with 100 ng/mL recombinant human VEGF165 (R&D Systems #293-VE-500) for 5 min, washed with cold PBS, and immediately lysed with 130 μL of cold 1× lysis buffer [20 mM Tris, 137 mM sodium chloride, 2 mM EDTA, 10% glycerol, 1% NP-40 alternative, 1 mM activated sodium orthovanadate, 1 mM PefaBloc SC (Sigma-Aldrich #11429868001), protease/phosphatase inhibitor tablet (Thermo Fisher #A32959)]. Lysates were collected and 100 μL/well added into the human phospho-KDR DuoSet IC ELISA (R&D Systems #DYC1766-2). Assay was performed according to manufacturer's instructions and sample phospho-KDR concentrations were extrapolated using human phospho-KDR control (R&D Systems #841421) as a standard. Positive control wells (100% activity) contained VEGF165-stimulated, DMSO-treated cell lysates. Negative control wells (0% activity) contained non-stimulated cell lysates. IC50 values were calculated by nonlinear regression analysis using a 4-parameter logistic curve fit in ActivityBase XE (IDBS).

Met = Met (Homo sapiens, UniProt P08581); assay: Met autophosphorylation ELISA in PC-3 cells; set-up: endogenous in cells; host or cells: PC-3 prostate cancer cells (ATCC #CRL-1435); conditions: Table 3 Cellular Activities, HGF-stimulated, phospho-Met ELISA, read-out: c-Met IC50
Procedure: PC-3 prostate cancer cells (ATCC #CRL-1435) were seeded at 4×10^4 cells/well onto 24-well plates (Greiner #662165), in DMEM (Thermo Fisher #11995-040) containing 10% FBS (Thermo Fisher #26140-079), 1% MEM NEAA (Thermo Fisher #11140-050), 1% GlutaMax (Thermo Fisher #35050-061), and 1% Penicillin Streptomycin (Thermo Fisher #15140-122). PC-3 cells were incubated at 37° C., 5% CO2 for 24 h and then starved for 3 h in serum-free medium. Test compounds were serially diluted to produce an 8-point dose curve in fresh serum-free medium to a final concentration of 0.3% DMSO (vehicle) and added to the cells and incubated for 1 h. Cells were then stimulated with 100 ng/mL recombinant human HGF (R&D Systems #294-HG-250) for 10 min, washed with cold PBS, and immediately lysed with 130 μL of cold 1× lysis buffer [20 mM Tris, 137 mM sodium chloride, 2 mM EDTA, 10% glycerol, 1% NP-40 alternative, 1 mM activated sodium orthovanadate, 1 mM PefaBloc SC (Sigma-Aldrich #11429868001), protease/phosphatase inhibitor tablet (Thermo Fisher #A32959)]. Lysates were clarified by centrifugation and 100 μL/well added into the PathScan phospho-Met (panTyr) Sandwich ELISA (Cell Signaling Technology #7333). Assay was performed according to manufacturer's instructions. Positive control wells (100% activity) contained HGF-stimulated, DMSO-treated cell lysates. Negative control wells (0% activity) contained HGF-stimulated, reference inhibitor-treated cell lysates. IC50 values were calculated by nonlinear regression analysis using a 4-parameter logistic curve fit in ActivityBase XE (IDBS).

Chain of KDR (P35968 20-1356): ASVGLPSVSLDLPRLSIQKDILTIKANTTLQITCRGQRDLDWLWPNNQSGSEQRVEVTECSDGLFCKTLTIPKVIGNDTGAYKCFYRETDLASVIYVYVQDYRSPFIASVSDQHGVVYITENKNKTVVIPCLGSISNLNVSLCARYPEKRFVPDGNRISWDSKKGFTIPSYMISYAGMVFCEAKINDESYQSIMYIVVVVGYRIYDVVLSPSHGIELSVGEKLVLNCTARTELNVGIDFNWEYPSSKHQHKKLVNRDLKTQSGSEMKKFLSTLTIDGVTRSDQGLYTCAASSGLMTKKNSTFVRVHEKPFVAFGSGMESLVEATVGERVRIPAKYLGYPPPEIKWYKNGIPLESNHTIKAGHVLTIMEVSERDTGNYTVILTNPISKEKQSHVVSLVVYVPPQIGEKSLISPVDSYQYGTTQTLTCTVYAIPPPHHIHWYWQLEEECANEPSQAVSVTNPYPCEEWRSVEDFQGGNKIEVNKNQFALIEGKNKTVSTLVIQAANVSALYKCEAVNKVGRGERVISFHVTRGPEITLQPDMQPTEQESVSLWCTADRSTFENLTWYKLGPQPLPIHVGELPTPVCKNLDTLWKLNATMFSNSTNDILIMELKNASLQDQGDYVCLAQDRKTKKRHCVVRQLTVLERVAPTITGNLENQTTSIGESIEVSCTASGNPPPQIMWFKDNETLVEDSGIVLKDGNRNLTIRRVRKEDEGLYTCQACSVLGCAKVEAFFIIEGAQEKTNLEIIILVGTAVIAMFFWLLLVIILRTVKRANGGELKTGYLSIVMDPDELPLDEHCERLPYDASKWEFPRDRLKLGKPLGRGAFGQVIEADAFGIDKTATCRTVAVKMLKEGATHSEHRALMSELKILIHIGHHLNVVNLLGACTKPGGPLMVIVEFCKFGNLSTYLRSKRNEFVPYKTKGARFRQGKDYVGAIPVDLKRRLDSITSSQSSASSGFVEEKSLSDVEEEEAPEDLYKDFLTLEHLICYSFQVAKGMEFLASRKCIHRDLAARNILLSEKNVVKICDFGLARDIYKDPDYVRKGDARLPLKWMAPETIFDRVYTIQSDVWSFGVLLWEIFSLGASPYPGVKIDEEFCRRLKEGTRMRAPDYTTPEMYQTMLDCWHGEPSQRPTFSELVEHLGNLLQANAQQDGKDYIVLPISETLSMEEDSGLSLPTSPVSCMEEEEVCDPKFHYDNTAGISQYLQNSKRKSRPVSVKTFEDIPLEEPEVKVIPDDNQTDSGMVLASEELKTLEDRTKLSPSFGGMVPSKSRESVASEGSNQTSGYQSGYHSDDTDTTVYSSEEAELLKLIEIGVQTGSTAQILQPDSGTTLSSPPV
Chain of Met (P08581 25-1390): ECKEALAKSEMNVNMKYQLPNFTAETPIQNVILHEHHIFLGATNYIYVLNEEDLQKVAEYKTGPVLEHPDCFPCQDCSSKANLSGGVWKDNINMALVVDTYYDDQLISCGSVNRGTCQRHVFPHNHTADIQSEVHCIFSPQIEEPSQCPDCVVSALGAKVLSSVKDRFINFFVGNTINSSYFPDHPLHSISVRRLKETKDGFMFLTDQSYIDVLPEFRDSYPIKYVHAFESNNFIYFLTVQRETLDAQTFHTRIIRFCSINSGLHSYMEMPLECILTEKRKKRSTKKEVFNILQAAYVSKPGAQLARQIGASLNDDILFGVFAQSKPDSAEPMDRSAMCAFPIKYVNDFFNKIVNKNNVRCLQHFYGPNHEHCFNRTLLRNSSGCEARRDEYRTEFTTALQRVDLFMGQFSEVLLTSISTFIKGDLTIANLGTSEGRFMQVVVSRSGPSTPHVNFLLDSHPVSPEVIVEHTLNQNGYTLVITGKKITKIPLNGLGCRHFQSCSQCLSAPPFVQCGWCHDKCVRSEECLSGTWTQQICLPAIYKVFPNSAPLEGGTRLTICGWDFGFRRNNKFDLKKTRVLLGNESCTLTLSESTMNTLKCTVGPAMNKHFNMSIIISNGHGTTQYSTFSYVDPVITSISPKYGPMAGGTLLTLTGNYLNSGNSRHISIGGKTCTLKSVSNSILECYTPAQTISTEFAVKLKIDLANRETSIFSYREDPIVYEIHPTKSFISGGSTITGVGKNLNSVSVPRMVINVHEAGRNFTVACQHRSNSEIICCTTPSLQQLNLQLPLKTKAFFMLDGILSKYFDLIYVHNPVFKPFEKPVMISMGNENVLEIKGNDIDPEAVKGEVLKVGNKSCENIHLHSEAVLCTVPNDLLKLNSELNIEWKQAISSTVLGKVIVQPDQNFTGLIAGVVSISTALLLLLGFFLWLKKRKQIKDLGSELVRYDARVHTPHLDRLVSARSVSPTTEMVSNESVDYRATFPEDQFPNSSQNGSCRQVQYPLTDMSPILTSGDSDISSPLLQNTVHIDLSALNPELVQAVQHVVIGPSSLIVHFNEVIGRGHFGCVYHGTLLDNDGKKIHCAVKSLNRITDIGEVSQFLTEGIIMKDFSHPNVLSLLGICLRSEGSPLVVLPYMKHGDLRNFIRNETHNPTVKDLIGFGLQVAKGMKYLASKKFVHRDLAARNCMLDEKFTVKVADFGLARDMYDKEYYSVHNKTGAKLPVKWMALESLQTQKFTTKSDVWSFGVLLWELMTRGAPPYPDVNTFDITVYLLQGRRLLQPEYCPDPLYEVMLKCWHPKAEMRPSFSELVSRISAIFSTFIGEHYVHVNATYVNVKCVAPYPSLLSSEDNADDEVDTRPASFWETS

IC50 (Mer) [nM]	IC50 (KDR) [nM]	IC50 (Met) [nM]	SMILES
≤ 100	300 to 1000	≤ 100	COCCOc1cnc2c(Oc3ccc(NC(=O)c4c(C)n(C)c(C)c(-c5ccco5)c4=O)cc3F)ccnc2c1 [Compound 266, N-[3-Fluoro-4-[[7-(2-methoxyethoxy)-1,5-naphthyridin-4-yl]oxy]phenyl]-5-(furan-2-yl)-1,2,6-trimethyl-4-oxopyridine-3-carboxamide]
≤ 100	≤ 100	≤ 100	COCc1nc(C)c(-c2cccc(C)n2)c(O)c1C(=O)Nc1ccc(Oc2ccnc3cc(OC)c(OC)nc23)c(F)c1 [Compound 197, N-[4-[(6,7-Dimethoxy-1,5-naphthyridin-4-yl)oxy]-3-fluorophenyl]-4-hydroxy-2-(methoxymethyl)-6-methyl-5-(6-methylpyridin-2-yl)pyridine-3-carboxamide]
≤ 100	300 to 1000	≤ 100	COc1cnc2c(Oc3ccc(NC(=O)c4c(C)n(C)c(C)c(-c5ccco5)c4=O)cc3)ccnc2c1 [Compound 161, 5-(Furan-2-yl)-N-[4-[(7-methoxy-1,5-naphthyridin-4-yl)oxy]phenyl]-1,2,6-trimethyl-4-oxopyridine-3-carboxamide]
≤ 100	300 to 1000	≤ 100	COc1cnc2c(Oc3ccc(NC(=O)c4c(C)n(C)c(C)c(-c5ccco5)c4=O)cc3F)ccnc2c1 [Compound 162, N-[3-Fluoro-4-[(7-methoxy-1,5-naphthyridin-4-yl)oxy]phenyl]-5-(furan-2-yl)-1,2,6-trimethyl-4-oxopyridine-3-carboxamide]
300 to 1000	300 to 1000	300 to 1000	COc1cc2nccc(Oc3ccc(NC(=O)c4cc(C(C)=O)c(C)n(-c5ccoc5)c4=O)cc3)c2nc1OC [Compound 239, 5-Acetyl-N-[4-[(6,7-dimethoxy-1,5-naphthyridin-4-yl)oxy]phenyl]-1-(furan-3-yl)-6-methyl-2-oxopyridine-3-carboxamide]
≤ 100	300 to 1000	≤ 100	COc1cc2nccc(Oc3ccc(NC(=O)c4ccc(C)n(-c5ccnc(OC(C)C)c5)c4=O)cc3F)c2nc1OC [Compound 225, N-[4-[(6,7-Dimethoxy-1,5-naphthyridin-4-yl)oxy]-3-fluorophenyl]-6-methyl-2-oxo-1-(2-propan-2-yloxypyridin-4-yl)pyridine-3-carboxamide]

The remaining lines, values behind:

SMILES	IC50 (Mer) [nM]	IC50 (KDR) [nM]	IC50 (Met) [nM]
COc1cc2nccc(Oc3ccc(NC(=O)c4c5n(c(C)c(-c6ccoc6)c4=O)CCOC5)cc3F)c2nc1OC [Compound 308, N-[4-[(6,7-Dimethoxy-1,5-naphthyridin-4-yl)oxy]-3-fluorophenyl]-7-(furan-3-yl)-6-methyl-8-oxo-3,4-dihydro-1H-pyrido [2,1-c][1,4]oxazine-9-carboxamide]	≤ 100	300 to 1000	≤ 100
CCc1c(C(=O)Nc2ccc(Oc3ccnc4cc(OC)c(OC)nc34)cc2)c(=O)c(-c2ccco2)c(C)n1C [Compound 325, N-[4-[(6,7-Dimethoxy-1,5-naphthyridin-4-yl)oxy]phenyl]-2-ethyl-5-(furan-2-yl)-1,6-dimethyl-4-oxopyridine-3-carboxamide]	≤ 100	300 to 1000	300 to 1000
COc1cc2nccc(Oc3ccc(NC(=O)c4c5n(cc(-c6ccsc6)c4=O)CCOC5)cc3)c2nc1OC [Compound 301, N-[4-[(6,7-Dimethoxy-1,5-naphthyridin-4-yl)oxy]phenyl]-8-oxo-7-thiophen-3-yl-3,4-dihydro-1H-pyrido[2,1-c][1,4]oxazine-9-carboxamide]	≤ 100	300 to 1000	≤ 100
COc1cc2nccc(Oc3ccc(NC(=O)c4c(C)ncc(-c5ccc(C=O)o5)c4O)cc3F)c2nc1OC [Compound 121, N-[4-[(6,7-Dimethoxy-1,5-naphthyridin-4-yl)oxy]-3-fluorophenyl]-5-(5-formylfuran-2-yl)-4-hydroxy-2-methylpyridine-3-carboxamide]	≤ 100	≤ 100	100 to 300
COc1cc2nccc(Oc3ccc(NC(=O)c4c(C)ncc(-c5ccc(C)s5)c4O)cc3F)c2nc1OC [Compound 124, N-[4-[(6,7-Dimethoxy-1,5-naphthyridin-4-yl)oxy]-3-fluorophenyl]-4-hydroxy-2-methyl-5-(5-methylthiophen-2-yl)pyridine-3-carboxamide]	≤ 100	≤ 100	≤ 100
